From patent US4808521A, “Double-labeled enzymeimmunoassay methods” (priority 1985, dated 1989)

Target: β-galactosidase (Escherichia coli, UniProt P00722)
Assay: Kinetics of β-galactosidase hydrolysis of p-NPBG and its inhibition by diethanolamine
Assay type: biochemical
Settings: about 1M diethanolamine, pH 8.6, normal p-NPBG concentrations (up to approximately 5mM)
Description: β-galactosidase has a pH optimum of 7.4 for p-nitrophenyl-β-D-galactoside (p-NPBG), although in a single assay format using normal substrate concentrations (up to approximately 5mM), the pH can be raised to 8.6 with only a slight loss (approximately 20%) of activity.

Sequence of β-galactosidase (P00722 2-1024): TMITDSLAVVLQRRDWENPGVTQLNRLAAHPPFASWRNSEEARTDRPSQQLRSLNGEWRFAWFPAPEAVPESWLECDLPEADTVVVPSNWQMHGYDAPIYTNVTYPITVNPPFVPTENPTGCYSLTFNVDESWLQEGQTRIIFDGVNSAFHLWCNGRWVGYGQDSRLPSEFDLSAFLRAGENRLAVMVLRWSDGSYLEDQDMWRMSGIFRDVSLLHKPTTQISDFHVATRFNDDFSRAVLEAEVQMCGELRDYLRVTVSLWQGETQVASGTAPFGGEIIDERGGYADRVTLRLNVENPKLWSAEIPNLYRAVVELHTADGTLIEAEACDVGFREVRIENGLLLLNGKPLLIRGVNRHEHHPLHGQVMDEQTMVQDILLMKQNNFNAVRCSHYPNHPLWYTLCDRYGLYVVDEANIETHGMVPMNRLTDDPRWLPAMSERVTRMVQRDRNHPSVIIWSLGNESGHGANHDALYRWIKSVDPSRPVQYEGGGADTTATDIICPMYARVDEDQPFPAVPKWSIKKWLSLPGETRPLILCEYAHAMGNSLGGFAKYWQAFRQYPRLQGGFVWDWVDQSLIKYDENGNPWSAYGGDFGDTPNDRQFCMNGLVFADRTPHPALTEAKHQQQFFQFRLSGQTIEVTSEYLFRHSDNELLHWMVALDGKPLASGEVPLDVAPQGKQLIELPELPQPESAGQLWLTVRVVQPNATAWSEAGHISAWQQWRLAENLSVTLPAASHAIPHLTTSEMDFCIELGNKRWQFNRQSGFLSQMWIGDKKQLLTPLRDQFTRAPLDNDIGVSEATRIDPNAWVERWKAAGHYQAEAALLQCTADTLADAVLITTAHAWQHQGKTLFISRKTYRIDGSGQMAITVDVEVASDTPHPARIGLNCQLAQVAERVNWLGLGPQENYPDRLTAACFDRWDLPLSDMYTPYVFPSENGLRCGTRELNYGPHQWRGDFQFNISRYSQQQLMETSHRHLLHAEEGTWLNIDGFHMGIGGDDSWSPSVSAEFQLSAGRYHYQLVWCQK

Compound: OCCNCCO [diethanolamine]
- activity of β-galactosidase in the presence of diethanolamine: almost totally abolished
